Results on 40 compounds are retold here after patent US20010049374A1 (priority 1997, published 2001).

For one test, the system named is tumor metastasis. The conditions noted are these: in vivo; Kellen et al. 1988; cited from earlier work.
Test [1] relates to angiogenesis/capillary network formation. The settings on record: in vitro; Alliegro and Glaser 1991; cited from earlier work.
In test [2] the target is T1, urokinase enzyme Abbokinase (Homo sapiens, UniProt P00749).
T1 construct: purchased Abbott Laboratories, Abbott Park, Ill
In words: Determination of urokinase inhibition (Abbokinase, chromogenic substrate S-2444). The test is classed as biochemical.

The mark [3] stands for this setting: IC50, Inhibitory potency against urokinase, substrate S-2444 at 200 μM, enzyme 2-3 nM, pH 7.4, 405 nm.
Setting [4] is: Inhibitory potency against urokinase, substrate S-2444 at 200 μM, enzyme 2-3 nM, pH 7.4, 405 nm, read-out: IC50.

Like-named read-outs stand apart in the source and are kept apart here.

On to `N=C(N)NC(=O)c1nc(Cl)c(N)nc1N` [Amiloride], for which the “inhibition of tumor metastasis” value with tumor metastasis is “inhibit tumor metastasis in vivo”. The “inhibition of angiogenesis/capillary network formation” value in test [1] is given as “angiogenesis/capillary network formation in vitro”.

One may read the IC50 as the concentration at which inhibition is half-maximal. `N=C(N)c1ccc2ccc(OCCO)cc2c1` [Example 30, 7-(2-Hydroxyethoxy)-2-naphthalenecarboximidamide] showed an IC50 in test [2] (setting [3]) of 3600 nM. Regarding “methyl 2-[[6-(aminoiminomethyl)-2-naphthalenyl]oxy]acetate [Example 185]”, the IC50 in test [2] (setting [4]) came to 3190 nM. `COc1cccc(-c2ccc3cc(C(=N)N)ccc3c2)c1` [Example 47, 6-(3-Methoxyphenyl)-2-naphthalenecarboximidamide]: in test [2] (setting [3]), inhibition was half-maximal at 4800 nM (IC50). As to “N-[7-(aminoiminomethyl)-1-naphthalenyl]benzenemethanesulfonamide [Example 20]”, in test [2] (setting [4]), the IC50 was found to be 803 nM. “N-(6-aminoiminomethyl-2-naphthalenyl)-N′-cyclohexylurea [Example 74]”: in test [2] (setting [4]), the half-inhibitory concentration (IC50) worked out at 1610 nM. For “1,1-dimethylethyl [[4-[[[6-(aminoiminomethyl)-2-naphathalenyl]amino]carbonyl]phenyl]methyl]carbamate [Example 135]”, the IC50 in test [2] (setting [4]) was 1910 nM. In test [2] (setting [3]), `[H]/N=C(/N)c1ccc2cccc(C=Cc3ccc4c(c3)OCO4)c2c1` [Example 61, (E)-8-[2-(1,3-Benzodioxol-5-yl)ethenyl]-2-naphthalenecarboximidamide] registered an IC50 of 730 nM. Turning to “6-(aminoiminomethyl)-N-(2,3-dihydro-1H-inden-5-yl)-2-naphthalenecarboxamide [Example 118]”, in test [2] (setting [4]), the IC50 came to 121 nM. The same measure, in the same setting: the figure for “(E)-4-[2-(6-Aminoiminomethyl-2-naphthalenyl)ethenyl]benzenesulfonamide [Example 83]” is 2240 nM.

Take “6-(aminoiminomethyl)-N-[3-(1-ethylpropoxy)phenyl]-2-naphthalenecarboxamide [Example 219]”: the IC50 in test [2] (pH 7.4, read-out: IC50) worked out at 103 nM. With `COc1cc2ccc(C(=N)N)cc2c(OC)c1OC` [Example 2, 6,7,8-trimethoxy-2-naphthalenecarboximidamide], half-maximal inhibition in test [2] (setting [3]) (IC50) was put at 9800 nM. With “4-Amino-N-[3-(6-aminoiminomethyl-2-naphthalenyl)-2-propynyl]benzamide [Example 36]”, the IC50 in test [2] (setting [4]) is 1750 nM. As for `COc1ccc(Nc2c(OC)ccc3ccc(C(=N)N)cc23)cc1` [Example 103, 7-methoxy-8-[(4-methoxyphenyl)amino]-2-naphthalenecarboximidamide], the 50% inhibitory concentration (IC50) in test [2] (setting [3]) was 570 nM. Consider “6-(aminoiminomethyl)-N-(2-naphthalenyl)-2-naphthalenecarboxamide [Example 143]”, for which, in test [2] (setting [4]), the IC50 was 360 nM. Still for that read-out and setting: for `CN(C(=O)Nc1ccc2cc(C(=N)N)ccc2c1)c1ccccc1` [Example 72] the value was 4300 nM; for `COC(=O)Nc1cc(C(=O)Nc2ccc(CN)cc2)cc2ccc(C(=N)N)cc12` [Example 141, methyl [7-(aminoiminomethyl)-3-[[[4-(aminomethyl)phenyl]amino]carbonyl]-1-naphathalenyl]carbamate], 1.17 nM; for “6-(aminoiminomethyl)-N-(3-pyridazinyl)-2-naphthalenecarboxamide [Example 209]”, 820 nM.

With “Methyl [3-methoxy-6-(aminoiminomethyl)-4-naphthalenyl]carbamate [Example 90]”, the IC50 in test [2] (setting [4]) amounted to 70 nM. Still for that read-out and setting: the figure for “6-(aminoiminomethyl)-N-(1H-indazol-5-yl)-2-naphthalenecarboxamide [Example 204]” is 331 nM. Same read-out and setting: for “(E)-3-[7-(aminoiminomethyl)-2-methoxy-1-naphthalenyl)-2-propenamide [Example 120]” the value was 930 nM. With `N=C(N)c1ccc2cc(OCc3ccc(CO)cc3)ccc2c1` [Example 176, 6-[4-[(hydroxymethyl)phenyl]methoxy]-2-naphthalenecarboximidamide], the IC50 in test [2] (setting [3]) is 5010 nM.

`N=C(N)c1ccc2cc(-c3cccc(C=O)c3)ccc2c1` [Example 111, 6-(3-formylphenyl)-2-naphthalenecarboximidamide] had an IC50 in test [2] (setting [3]) of 4170 nM.

For “6-(aminoiminomethyl)-N-(3-ethoxyphenyl)-2-naphthalenecarboxamide [Example 223]”, the IC50 in test [2] (setting [4]) turned out to be 70 nM.

With “6-(aminoiminomethyl)-N-(3, 5-difluorophenyl)-2-naphthalenecarboxamide [Example 190]”, in test [2] (setting [4]), the IC50 turned out to be 565 nM. As to “1-[(7-aminoiminomethyl-2-methoxy-1-naphthalenyl)oxy]-3-bromopropane [Example 21]”, the IC50 in test [2] (setting [4]) worked out at 1700 nM. On the same count and under the same terms, the figure for “6-(aminoiminomethyl)-N-(6-methyl-2-pyridinyl)-2-naphthalenecarboxamide [Example 194]” is 560 nM. In turn, `[H]/N=C(/N)c1ccc2cc(C=Cc3ccco3)ccc2c1` [Example 81, (E)-6-[2-(2-Furanyl)ethenyl]-2-naphthalenecarboximidamide] showed a half-maximal inhibitory concentration (IC50) in test [2] (setting [3]) of 3210 nM.

On to “6-(aminoiminomethyl)-N-[4-(hydroxymethyl)phenyl]-4-(2-pyrimidinylamino)-2-naphthalenecarboxamide [Example 168]”, for which the concentration for half-maximal inhibition (IC50) in test [2] (setting [4]) came to 3 nM. Turning to “6-(aminoiminomethyl)-N-(5-bromo-2-pyridinyl)-2-naphthalenecarboxamide [Example 210]”, in test [2] (setting [4]), the IC50 came out at 780 nM.

Consider `NC(=NO)c1ccc2cc(C(=O)Nc3ccccc3)cc(Nc3ncccn3)c2c1` [Example 181], for which the IC50 in test [2] (setting [3]) stood at 8920 nM. With “6-(aminoiminomethyl)-N-[3-(cyclobutylmethoxy)phenyl]-2-naphthalenecarboxamide [Example 225]”, the 50% inhibitory concentration (IC50) in test [2] (pH 7.4, read-out: IC50) was determined as 104 nM. `CSCc1cc(-c2cc(C(=O)Nc3ccccc3)cc3ccc(C(=N)N)cc23)co1` [Example 229] gave an IC50 in test [2] (setting [3]) of 117 nM. Still for that read-out and setting: the figure for `COc1ccc2ccc(C(=N)N)cc2c1Nc1cnccn1` [Example 150, 7-methoxy-8-(pyrazinylamino)-2-naphthalenecarboximidamide] is 160 nM. “3-[(7-Aminoiminomethyl-2-methoxy-1-naphthalenyl)oxy]propene [Example 22]”: the IC50 in test [2] (setting [4]) was 1700 nM.

For the compound `COc1cc(OCc2ccccc2)c2cc(C(=N)N)ccc2c1` [Example 38, 6-methoxy-8-benzyloxy-2-naphthalenecarboximidamide], the IC50 in test [2] (setting [3]) is 6350 nM. For the compound “6-(aminoiminomethyl)-4-(3-furanyl)-N-(4-pyridinyl)-2-naphthalenecarboxamide [Example 115]”, the IC50 in test [2] (setting [4]) is 63 nM. Still for that read-out and setting: the figure for “6-(aminoiminomethyl)-4-[5-(ethylthio)-3-furanyl]-N-phenyl-2-naphthalenecarboxamide [Example 200]” is 37 nM. On to `COc1ccc2ccc(C(=N)N)cc2c1Nc1ncccn1` [Example 91, 7-Methoxy-8-[2-pyrimidinyl(amino)]-2-naphthalenecarboximidamide], for which the midpoint of inhibition in test [2] (setting [3]), the IC50, lay at 50 nM. In the case of “6-(aminoiminomethyl)-N-(3-methyl-2-pyridinyl)-2-naphthalenecarboxamide [Example 196]”, the half-inhibitory concentration (IC50) in test [2] (setting [4]) was 620 nM.
